Each block holds one compound with its values, some of them ahead of it.
Assays:
[1] = tested on: HT1080 cell line with high FAP expression; test: Therapeutic experiment of ^177Lu-labeled compounds in tumor-bearing mice; format: in vivo, Balb/c Nude mice; conditions: ^177Lu-labeled compound
Protocol: Balb/c Nude tumor-bearing mice (supplier: Shanghai Alamo Pharmaceutical Technology Co., Ltd., HT1080 cell line with high FAP expression) aged approximately 6-8 weeks were randomly assigned to 13 experimental groups based on tumor volume, with 5 mice per group. Animal body weight and tumor size were measured, and administration was initiated on the grouping day starting with Group 1 (control group: normal saline). General health and appearance were observed daily after the start of the experiment. Animal body weight and tumor size were measured before each sample collection time point. Any abnormal observations detected during the entire study period were required to be recorded in the raw data.
The synthesized compounds were labeled with ^177Lu and subsequently utilized in the therapeutic assay on mouse tumor models. […] Furthermore, no significant changes in mouse body weight (FIG. 8) were observed throughout the experimental period.
• TGI^TV: Relative tumor inhibition rate (TGI^TV): TGI^TV (%)=[1−(Ti−T0)/(Vi−V0)]×100%; • (Ti: average tumor volume of the treatment group on day i of administration, TO: average tumor volume of the treatment group on day 0 of administration; Vi: average tumor volume of the solvent control group on day i of administration, V0: average tumor volume of the solvent control group on day 0 of administration) • T/C: T/C % is one of the most commonly used indicators for tumor response to treatment: T/C %=T/C*100%; • (T represents the average tumor volume of the treatment group at a specific time point; C represents the average tumor volume of the control group at a specific time point.)
The differences between the treatment groups (tumor volumes of the second, third, fourth, and fifth groups) and the control group (tumor volume of the first group) and between the tumor volumes of the first, third, fourth, and fifth groups and the tumor volume of the second group were analyzed using the two-way ANOVA Fisher's LSD test method. P-values less than 0.05 were considered statistically significant. Both statistical significance and biological significance were taken into account during the result analysis.

[2] = tested on: HT1080 cell line with high FAP expression; test: ^68Ga labeling and animal imaging assay (PET/CT) in tumor-bearing mice; format: in vivo; design: Imaging data, Muscle / Imaging data, Bone / Imaging data, Bladder / Imaging data, Tumor / Imaging data, Intestine / Imaging data, Brain / Imaging data, Heart / Imaging data, Liver / Imaging data, Lung / Imaging data, Kidney: unit not given here
Protocol: A. 1.0 mg of JHH7 precursor was weighed and dissolved in 0.1 M sodium acetate buffer to prepare a 1.0 mg/mL precursor solution.
B. The Ge/Ga generator was eluted stepwise with 5 mL of 0.1 M HCl, and the highest activity fraction (0.5 mL) was collected. 0.5 mL of metal-free 0.1 M sodium acetate buffer (pH=4.5) was added. In a 1.5 mL centrifuge tube as the reaction tube, a specific amount of precursor [1000 (molecular weight)/14.94 μL (precursor solution)/mCi (radionuclide)] was added, vortex-mixed for 10 s, and heated at 95° C., 800 rpm for 15 min.
C. The C18 Sep-Pak was activated with anhydrous ethanol, rinsed thoroughly with pure water, and the excess water was removed.
D. The solution after the reaction was passed through the C18 Sep-Pak, rinsed with pure water, and the excess water was removed. Subsequently, the C18 Sep-Pak was eluted with ethanol, collecting approximately 10 tubes with 3 drops per tube.
E. The final preparation should be a clear solution, prepared fresh for immediate use and limited to the same day.
1) The PET/CT was powered on according to the standard operating procedures, the scanning software was launched, and daily calibration was performed.
2) Animal anesthesia preparation was conducted, where tumor-bearing mice (supplied by Shanghai Alamo Pharmaceutical Technology Co., Ltd., HT1080 cell line with high FAP expression) were anesthetized using isoflurane.
3) After the loss of righting reflex in the tumor-bearing mice, the imaging agent was injected via the tail vein.
4) After drug administration, dynamic scanning at 1 hour and static scanning was performed at 3 hours were performed for 10 minutes.
5) During the process, animal body weight, injection dose, injection time, and residual dose were recorded according to the record sheet, and the time of measuring the injection dose and the time of measuring the residual dose were separately recorded.
6) The uptake in animal tumors, muscles, and other organs was analyzed using PMOD software.
^68Ga-labeled compounds JHH7 and JHH11 were imaged in tumor-bearing mice, and the results are shown in FIG. 5 and FIG. 6, with the imaging data shown in Tables 4 and 5.

SMILES: N#C[C@@H]1CC(F)(F)CN1C(=O)CNC(=O)c1cccc2c1CCCC2C(=O)CCC(=O)NCCNC(=O)CCNC(=O)CN1CCN(CC(=O)O)CCN(CC(=O)O)CCN(CC(=O)O)CC1 (stereo partly drawn) [JHH14]
- therapeutic effects in mouse tumor model [1]: dose-dependent therapeutic effects

- Imaging data, Bladder ([2]; 5 min): 4.24
- Imaging data, Bone ([2]; 5 min): 0.92
- Imaging data, Brain ([2]; 5 min): 0.98
- Imaging data, Heart ([2]; 5 min): 8.61
- Imaging data, Intestine ([2]; 5 min): 1.96
- Imaging data, Kidney ([2]; 5 min): 13.43
- Imaging data, Liver ([2]; 5 min): 5.43
- Imaging data, Lung ([2]; 5 min): 3.12
- Imaging data, Muscle ([2]; 5 min): 0.82
- Imaging data, Tumor ([2]; 5 min): 1.06
- Imaging data, Bladder ([2]; 10 min): 17.03
- Imaging data, Bone ([2]; 10 min): 1.68
- Imaging data, Brain ([2]; 10 min): 0.66
- Imaging data, Heart ([2]; 10 min): 4.33
- Imaging data, Intestine ([2]; 10 min): 1.99
- Imaging data, Kidney ([2]; 10 min): 15.81
- Imaging data, Liver ([2]; 10 min): 3.56
- Imaging data, Lung ([2]; 10 min): 2.08
- Imaging data, Muscle ([2]; 10 min): 1.22
- Imaging data, Tumor ([2]; 10 min): 2.47
- Imaging data, Bladder ([2]; 15 min): 27.04
- Imaging data, Bone ([2]; 15 min): 1.17
- Imaging data, Brain ([2]; 15 min): 0.59
- Imaging data, Heart ([2]; 15 min): 3.22
- Imaging data, Intestine ([2]; 15 min): 1.66
- Imaging data, Kidney ([2]; 15 min): 20.15
- Imaging data, Liver ([2]; 15 min): 2.78
- Imaging data, Lung ([2]; 15 min): 1.97
- Imaging data, Muscle ([2]; 15 min): 1.16
- Imaging data, Tumor ([2]; 15 min): 3.26
- Imaging data, Bladder ([2]; 20 min): 45.38
- Imaging data, Bone ([2]; 20 min): 1.08
- Imaging data, Brain ([2]; 20 min): 0.55
- Imaging data, Heart ([2]; 20 min): 2.72
- Imaging data, Intestine ([2]; 20 min): 1.54
- Imaging data, Kidney ([2]; 20 min): 13.33
- Imaging data, Liver ([2]; 20 min): 2.44
- Imaging data, Lung ([2]; 20 min): 1.88
- Imaging data, Muscle ([2]; 20 min): 0.98
- Imaging data, Tumor ([2]; 20 min): 3.87
- Imaging data, Bladder ([2]; 25 min): 60.89
- Imaging data, Bone ([2]; 25 min): 1.22
- Imaging data, Brain ([2]; 25 min): 0.45
- Imaging data, Heart ([2]; 25 min): 2.29
- Imaging data, Intestine ([2]; 25 min): 1.30
- Imaging data, Kidney ([2]; 25 min): 8.42
- Imaging data, Liver ([2]; 25 min): 2.16
- Imaging data, Lung ([2]; 25 min): 1.47
- Imaging data, Muscle ([2]; 25 min): 0.75
- Imaging data, Tumor ([2]; 25 min): 4.30
- Imaging data, Bladder ([2]; 30 min): 73.70
- Imaging data, Bone ([2]; 30 min): 0.82
- Imaging data, Brain ([2]; 30 min): 0.41
- Imaging data, Heart ([2]; 30 min): 1.98
- Imaging data, Intestine ([2]; 30 min): 1.22
- Imaging data, Kidney ([2]; 30 min): 5.54
- Imaging data, Liver ([2]; 30 min): 2.05
- Imaging data, Lung ([2]; 30 min): 1.48
- Imaging data, Muscle ([2]; 30 min): 0.65
- Imaging data, Tumor ([2]; 30 min): 4.60
- Imaging data, Bladder ([2]; 1.5 h): 265.50
- Imaging data, Bone ([2]; 1.5 h): 0.50
- Imaging data, Brain ([2]; 1.5 h): 0.03
- Imaging data, Heart ([2]; 1.5 h): 0.20
- Imaging data, Intestine ([2]; 1.5 h): 0.62
- Imaging data, Kidney ([2]; 1.5 h): 1.00
- Imaging data, Liver ([2]; 1.5 h): 0.78
- Imaging data, Lung ([2]; 1.5 h): 0.58
- Imaging data, Muscle ([2]; 1.5 h): 0.37
- Imaging data, Tumor ([2]; 1.5 h): 4.40
- Imaging data, Bladder ([2]; 3 h): 4.50
- Imaging data, Bone ([2]; 3 h): 0.02
- Imaging data, Brain ([2]; 3 h): 0.04
- Imaging data, Heart ([2]; 3 h): 0.12
- Imaging data, Intestine ([2]; 3 h): 0.08
- Imaging data, Kidney ([2]; 3 h): 0.46
- Imaging data, Liver ([2]; 3 h): 0.82
- Imaging data, Lung ([2]; 3 h): 0.25
- Imaging data, Muscle ([2]; 3 h): 0.08
- Imaging data, Tumor ([2]; 3 h): 2.30
- uptake in the tumor at 3 hours ([2]; 3 hours after injection): tumor uptake was still observed
- time of peak tumor uptake after injection ([2]; tumor-bearing mice, intravenous injection): 30 min
SMILES: N#C[C@@H]1CC(F)(F)CN1C(=O)CNC(=O)c1cc2c(s1)CCN(C(=O)CCC(=O)NCCNC(=O)CCNC(=O)CN1CCN(CC(=O)O)CCN(CC(=O)O)CCN(CC(=O)O)CC1)C2 [^68Ga-JHH11, metal not drawn]
- metabolism and excretion from the mice ([2]; after injection): rapidly metabolized and excreted from the mice

Reference: US20260226049A1, “NITROGEN-CONTAINING HETEROCYCLIC COMPOUND, PREPARATION METHOD THEREFOR, AND USE THEREOF” (BIVISION PHARMACEUTICALS, INC, priority 2023, published 2026)
